Results taken from patent US11478460B2, “Diaryl substituted 6,5-fused ring compounds as C5aR inhibitors” (CHEMOCENTRYX, INC., priority 2017, dated 2022).

The molecules below were run against C5aR (Homo sapiens (Human), UniProt P21730) (assay: Chemotaxis assay using U937 cells (C5aR mediated migration)). Conditions: read-out: Mig IC50.
Sequence of C5aR (P21730 whole entry): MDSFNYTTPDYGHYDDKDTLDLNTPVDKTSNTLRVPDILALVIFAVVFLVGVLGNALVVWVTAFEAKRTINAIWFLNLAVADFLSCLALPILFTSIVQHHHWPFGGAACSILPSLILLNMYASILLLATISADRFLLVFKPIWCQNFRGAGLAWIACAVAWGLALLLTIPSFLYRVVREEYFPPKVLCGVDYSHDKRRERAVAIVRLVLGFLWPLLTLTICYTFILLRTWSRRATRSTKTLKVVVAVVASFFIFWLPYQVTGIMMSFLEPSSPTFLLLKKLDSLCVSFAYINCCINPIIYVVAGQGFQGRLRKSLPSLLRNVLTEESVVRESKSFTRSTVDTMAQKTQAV
Format: cell-based
Procedure: U937 cells are a monocytic cell line which express C5aR, and are available from ATCC (VA). These cells were cultured as a suspension in RPMI-1640 medium supplemented with 2 mM L-glutamine, 1.5 g/L sodium bicarbonate, 4.5 g/L glucose, 10 mM HEPES, 1 mM sodium pyruvate, and 10% FBS. Cells were grown under 5% CO2/95% air, 100% humidity at 37° C. and subcultured twice weekly at 1:6 (cells were cultured at a density range of 1×10^5 to 2×10^6 cells/mL) and harvested at 1×10^6 cells/mL. Prior to assay, cells are treated overnight with 0.5 mM of cyclic AMP (Sigma, OH) and washed once prior to use. cAMP treated U937 cells can be used in C5aR ligand binding and functional assays.
Optionally, compounds may be further assayed for their ability to inhibit chemotaxis in cells. Chemotaxis assays are performed using 5 μm pore polycarbonate, polyvinylpyrrolidone-coated filters in 96-well chemotaxis chambers (Neuroprobe; Gaithersburg, Md.) using chemotaxis buffer (Hank's balanced salt solution (HBSS) and 1% FBS). C5aR ligands (i.e., C5a, R&D Systems; Minneapolis, Minn.) are use to evaluate compound mediated inhibition of C5aR mediated migration. Other chemokines (i.e., SDF-1α; R&D Systems; Minneapolis, Minn.) are used as specificity controls. The lower chamber is loaded with 29 μl of chemokine (i.e., 0.03 nM C5a) and varying amounts of compound; the top chamber contains 100,000 U937 or neutrophil cells in 20 μl. The chambers are incubated 1.5 hours at 37° C., and the number of cells in the lower chamber quantified either by direct cell counts in five high powered fields per well or by the CyQuant assay (Molecular Probes), a fluorescent dye method that measures nucleic acid content and microscopic observation.
The compounds in Table 1, below, were prepared using the methods described above. Characterization data is provided for each compound listed. Activity is provided as follows for the chemotaxis assay using U937 cells as described herein (Example 12): +, 500 nM<IC50; ++, 50 nM<IC50≤500 nM; +++, 5 nM<IC50≤50 nM; and ++++, IC50≤5 nM.
Molecule `CCC(C)N1CCc2nn(-c3c(C)cccc3OCC(C)C)c(-c3ccc(NC(N)=O)c(F)c3)c2C1` (centres unmarked) [Example 1.259] has an IC50 of 5 to 50 nM. With `CCc1cccc(CC)c1-n1nc2c(c1-c1cc(F)c(NC(N)=O)cc1F)CN(C(CO)c1ccccc1)CC2` (centres unmarked) [Example 1.079] the IC50 was 5 to 50 nM. Work on `Cc1cccc(OCC(C)C)c1-n1nc2c(c1-c1ccc(NC(N)=O)c(F)c1)CN(CC1CCCCC1)CC2` [Example 1.256] yielded an IC50 of no more than 5 nM. `Cc1cccc(OCC(C)C)c1-n1nc2c(c1-c1ccc(NC(N)=O)cc1)CN(c1ccc(Cl)c(C(F)(F)F)c1)CC2` [Example 1.379] gave an IC50 of 5 to 50 nM. `Cc1cccc(OCC(C)C)c1-n1nc2c(c1-c1ccc(NC(N)=O)cc1)CN(c1cc(C(C)(C)C)ccc1Cl)CC2` [Example 1.422] showed an IC50 of 5 to 50 nM. Molecule `Cc1cnc(N2CCc3nn(-c4c(C)cccc4OCC(C)C)c(-c4ccc(NC(N)=O)c(F)c4)c3C2)c(Cl)c1` [Example 1.213] has an IC50 of no more than 5 nM. `Cc1cccc(C(C)C)c1-n1nc2c(c1-c1ccc(NC(N)=O)cc1)CN(C(=O)OC(C)(C)C)CC2` [Example 1.428] gave an IC50 of 50 to 500 nM. Molecule `Cc1cccc(C)c1-n1nc2c(c1-c1cc(F)c(NC(N)=O)cc1F)CN(c1ncc(C3CC3)cc1F)CC2` [Example 1.089] has an IC50 of no more than 5 nM. Molecule `Cc1cccc(OCC(C)C)c1-n1nc2c(c1-c1cc(F)c(NC(N)=O)cc1F)CN(c1ncccc1C(C)C)CC2` [Example 1.191] has an IC50 of no more than 5 nM. Molecule `Cc1ccc(C(C)(C)C)cc1N1CCc2nn(-c3c(C)cccc3CCC(C)C)c(-c3ccc(NC(N)=O)cc3)c2C1` [Example 1.387] has an IC50 of 5 to 50 nM. For `Cc1cc(C(F)(F)F)ccc1CN1CCc2nn(-c3c(C)cccc3OCC(C)C)c(-c3ccc(NC(N)=O)cc3)c2C1` [Example 1.384], the IC50 was 5 to 50 nM. For `Cc1cccc(OCC(C)C)c1-n1nc2c(c1-c1ccc(NC(N)=O)cc1)CN(c1cc(C(F)(F)F)ccc1C(F)(F)F)CC2` [Example 1.342], the IC50 was no more than 5 nM. With `Cc1cccc(OCC(C)C)c1-n1nc2c(c1-c1ccc(NC(N)=O)cc1)CN(Cc1ccccc1C(F)(F)F)CC2` [Example 1.361] the IC50 was no more than 5 nM. With `Cc1cccc(C)c1-n1nc2c(c1-c1cc(F)c(NC(N)=O)cc1F)CN(c1ncccc1Cl)CC2` [Example 1.127] the IC50 was no more than 5 nM. With `CCc1cccc(CC)c1-n1nc2c(c1-c1ccc(NC(N)=O)c(F)c1)CN(C(C)C1CCCCC1)CC2` (centres unmarked) [Example 1.223] the IC50 was no more than 5 nM. In the case of `Cc1cccc(OCC(C)C)c1-n1nc2c(c1-c1cc(F)c(NC(N)=O)cc1F)CN(c1ncccn1)CC2` [Example 1.160], the IC50 is reported as no more than 5 nM. In the case of `CCc1cccc(CC)c1-n1nc2c(c1-c1cc(F)c(NC(N)=O)cc1F)CN(Cc1ccc(C(F)(F)F)cc1C(F)(F)F)[C@@H](C)C2` [Example 1.016], the IC50 is reported as no more than 5 nM. For `CCc1cccc(CC)c1-n1nc2c(c1-c1cc(F)c(NC(N)=O)cc1F)CN(Cc1cnn(CC)c1)CC2` [Example 1.072], the IC50 was 50 to 500 nM. `Cc1cccc(OCC(C)C)c1-n1nc2c(c1-c1cc(F)c(NC(N)=O)cc1F)CN(c1ncc(C(F)(F)F)cc1F)CC2` [Example 1.242] showed an IC50 of no more than 5 nM. `Cc1cccc(OCC(C)C)c1-n1nc2c(c1-c1ccc(NC(N)=O)cc1)CN(C(=O)C1CCCCC1)CC2` [Example 1.425] gave an IC50 greater than 500 nM. For `Cc1cccc(OCC(C)C)c1-n1nc2c(c1-c1cc(F)c(NC(N)=O)cc1F)CN(c1ccc(Cl)cn1)CC2` [Example 1.182], the IC50 was no more than 5 nM. With `Cc1cccc(OCC(C)C)c1-n1nc2c(c1-c1ccc(NC(N)=O)cc1)CN(C(=O)c1cccc(C(C)(C)C)c1)CC2` [Example 1.433] the IC50 was 50 to 500 nM. `CCc1cccc(CC)c1-n1nc2c(c1-c1cc(F)c(NC(N)=O)cc1F)CN(Cc1ccc(Cl)cc1C(F)(F)F)C(C)(C)C2` [Example 1.052] showed an IC50 of no more than 5 nM. For `COc1cccc(C)c1-n1nc2c(c1-c1ccc(NC(C)C)cc1)CN(c1ccccc1C)CC2` [Example 1.489], the IC50 was greater than 500 nM. With `Cc1cc(C(N)=O)ccc1-c1c2c(nn1-c1c(C)cccc1OCC(C)C)CCN(c1cc(C(C)(C)C)ccc1C)C2` [Example 1.443] the IC50 was 50 to 500 nM. Molecule `Cc1cccc(OCC(C)C)c1-n1nc2c(c1-c1ccc(NC(N)=O)cc1)CN(Cc1c(F)cccc1F)CC2` [Example 1.356] has an IC50 of 5 to 50 nM.
